Earlier results in patent US8003637B2, “Stabilized atypical antipsychotic formulation” (Handa Pharmaceuticals, LLC, priority 2008, dated 2011).
Read-outs that look alike come from different tables or passages of the source.

Conditions: Merck Index

| amount soluble in 100 grams of water (25° C.) [grams] | volume of water in which 1 gram can dissolve (boiling water) [mL] | volume of water in which 1 gram can dissolve (cold water) [mL] | SMILES |
| --- | --- | --- | --- |
| 0.63 |  |  | O=C(O)/C=C/C(=O)O [fumaric acid, (E)-butenedioic acid] |
|  | 1 | 13 | O=C(O)CCC(=O)O [succinic acid, 1,4-butanedioic acid] |
